Source: ChEMBL document CHEMBL4507311, “Data for DCP probe A-1155463” (2021)

How the values were obtained:
[1] = molecular target: Phosphorylase b kinase regulatory subunit alpha, liver isoform (Homo sapiens) (UniProt P46019); conditions: Compound concentration 1000.0 nM
[2] = molecular target: Cyclin-dependent kinase 3 (Homo sapiens) (UniProt Q00526); conditions: Compound concentration 1000.0 nM
[3] = molecular target: Mitogen-activated protein kinase kinase kinase kinase 2 (Homo sapiens) (UniProt Q12851); conditions: Compound concentration 1000.0 nM
[4] = molecular target: Serine/threonine-protein kinase PknB (Mycobacterium tuberculosis) (UniProt P9WI81); conditions: Compound concentration 1000.0 nM
[5] = molecular target: TGF-beta receptor type-2 (Homo sapiens) (UniProt P37173); conditions: Compound concentration 1000.0 nM
[6] = molecular target: Protein-tyrosine kinase 2-beta (Homo sapiens) (UniProt Q14289); conditions: Compound concentration 1000.0 nM
[7] = molecular target: Myosin light chain kinase 2, skeletal/cardiac muscle (Homo sapiens) (UniProt Q9H1R3); conditions: Compound concentration 1000.0 nM
[8] = molecular target: D(2) dopamine receptor (Homo sapiens) (UniProt P14416); conditions: Compound concentration 10.0 uM
[9] = tested on: Epidermal growth factor receptor (Homo sapiens), P00533 [UNDEFINED MUTATION]; conditions: Compound concentration 1000.0 nM
[10] = molecular target: Receptor tyrosine-protein kinase erbB-3 (Homo sapiens) (UniProt P21860); conditions: Compound concentration 1000.0 nM
[11] = molecular target: Serine/threonine-protein kinase 35 (Homo sapiens) (UniProt Q8TDR2); conditions: Compound concentration 1000.0 nM
[12] = molecular target: Calcium/calmodulin-dependent protein kinase type II subunit alpha (Homo sapiens) (UniProt Q9UQM7); conditions: Compound concentration 1000.0 nM
[13] = molecular target: Serine/threonine-protein kinase 38-like (Homo sapiens) (UniProt Q9Y2H1); conditions: Compound concentration 1000.0 nM
[14] = molecular target: Serine/threonine-protein kinase Nek3 (Homo sapiens) (UniProt P51956); conditions: Compound concentration 1000.0 nM
[15] = molecular target: Serine/threonine-protein kinase 16 (Homo sapiens) (UniProt O75716); conditions: Compound concentration 1000.0 nM
[16] = molecular target: Cyclin-dependent kinase 8 (Homo sapiens) (UniProt P49336); conditions: Compound concentration 1000.0 nM
[17] = tested on: Tyrosine-protein kinase ABL1 (Homo sapiens), P00519 [E255K]; conditions: Compound concentration 1000.0 nM
[18] = molecular target: Ephrin type-B receptor 4 (Homo sapiens) (UniProt P54760); conditions: Compound concentration 1000.0 nM
[19] = molecular target: Casein kinase I isoform gamma-1 (Homo sapiens) (UniProt Q9HCP0); conditions: Compound concentration 1000.0 nM
[20] = molecular target: T1, Muscarinic acetylcholine receptor M2 (Homo sapiens) (UniProt P08172); conditions: Compound concentration 10.0 uM
T1 sequence (whole entry): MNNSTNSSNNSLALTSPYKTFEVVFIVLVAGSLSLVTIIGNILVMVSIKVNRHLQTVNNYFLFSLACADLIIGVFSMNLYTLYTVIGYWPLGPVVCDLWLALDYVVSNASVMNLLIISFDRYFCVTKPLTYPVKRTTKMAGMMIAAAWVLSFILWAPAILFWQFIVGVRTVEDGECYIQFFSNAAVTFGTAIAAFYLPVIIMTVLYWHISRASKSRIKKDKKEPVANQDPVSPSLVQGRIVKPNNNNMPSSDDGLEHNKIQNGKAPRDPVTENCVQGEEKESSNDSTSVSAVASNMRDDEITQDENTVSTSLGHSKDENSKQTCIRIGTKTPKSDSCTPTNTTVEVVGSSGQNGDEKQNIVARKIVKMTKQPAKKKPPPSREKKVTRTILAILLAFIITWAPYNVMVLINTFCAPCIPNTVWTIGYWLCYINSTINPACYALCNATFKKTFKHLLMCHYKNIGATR

[21] = molecular target: Insulin receptor-related protein (Homo sapiens) (UniProt P14616); conditions: Compound concentration 1000.0 nM
[22] = molecular target: Tyrosine-protein kinase ZAP-70 (Homo sapiens) (UniProt P43403); conditions: Compound concentration 1000.0 nM
[23] = molecular target: Cyclin-dependent kinase 2 homolog (Plasmodium falciparum (isolate 3D7)) (UniProt P61075); conditions: Compound concentration 1000.0 nM
[24] = molecular target: Dual specificity protein kinase CLK2 (Homo sapiens) (UniProt P49760); conditions: Compound concentration 1000.0 nM
[25] = tested on: Epidermal growth factor receptor (Homo sapiens), P00533 [UNDEFINED MUTATION]; conditions: Compound concentration 1000.0 nM; remark: listed apart in the source
[26] = molecular target: Tyrosine-protein kinase receptor TYRO3 (Homo sapiens) (UniProt Q06418); conditions: Compound concentration 1000.0 nM
[27] = molecular target: Tyrosine-protein kinase Tec (Homo sapiens) (UniProt P42680); conditions: Compound concentration 1000.0 nM
[28] = molecular target: Phosphatidylinositol 4-phosphate 5-kinase type-1 gamma (Homo sapiens) (UniProt O60331); conditions: Compound concentration 1000.0 nM
[29] = molecular target: Epidermal growth factor receptor (Homo sapiens) (UniProt P00533); conditions: Compound concentration 1000.0 nM
[30] = molecular target: Receptor-type tyrosine-protein kinase FLT3 (Homo sapiens) (UniProt P36888); conditions: Compound concentration 1000.0 nM
[31] = molecular target: cAMP-dependent protein kinase catalytic subunit beta (Homo sapiens) (UniProt P22694); conditions: Compound concentration 1000.0 nM
[32] = molecular target: Leucine-rich repeat serine/threonine-protein kinase 2 (Homo sapiens) (UniProt Q5S007); conditions: Compound concentration 1000.0 nM
[33] = molecular target: Fibroblast growth factor receptor 2 (Homo sapiens) (UniProt P21802); conditions: Compound concentration 1000.0 nM
[34] = molecular target: Ribosomal protein S6 kinase alpha-3 (Homo sapiens) (UniProt P51812); conditions: Compound concentration 1000.0 nM
[35] = molecular target: Casein kinase I isoform gamma-2 (Homo sapiens) (UniProt P78368); conditions: Compound concentration 1000.0 nM
[36] = molecular target: Casein kinase I isoform epsilon (Homo sapiens) (UniProt P49674); conditions: Compound concentration 1000.0 nM
[37] = molecular target: Discoidin domain-containing receptor 2 (Homo sapiens) (UniProt Q16832); conditions: Compound concentration 1000.0 nM
[38] = molecular target: Dual specificity tyrosine-phosphorylation-regulated kinase 2 (Homo sapiens) (UniProt Q92630); conditions: Compound concentration 1000.0 nM
[39] = molecular target: Mitogen-activated protein kinase kinase kinase 12 (Homo sapiens) (UniProt Q12852); conditions: Compound concentration 1000.0 nM

Sequence of Epidermal growth factor receptor (Homo sapiens), P00533 [UNDEFINED MUTATION] (P00533 whole entry, looked up, change not shown): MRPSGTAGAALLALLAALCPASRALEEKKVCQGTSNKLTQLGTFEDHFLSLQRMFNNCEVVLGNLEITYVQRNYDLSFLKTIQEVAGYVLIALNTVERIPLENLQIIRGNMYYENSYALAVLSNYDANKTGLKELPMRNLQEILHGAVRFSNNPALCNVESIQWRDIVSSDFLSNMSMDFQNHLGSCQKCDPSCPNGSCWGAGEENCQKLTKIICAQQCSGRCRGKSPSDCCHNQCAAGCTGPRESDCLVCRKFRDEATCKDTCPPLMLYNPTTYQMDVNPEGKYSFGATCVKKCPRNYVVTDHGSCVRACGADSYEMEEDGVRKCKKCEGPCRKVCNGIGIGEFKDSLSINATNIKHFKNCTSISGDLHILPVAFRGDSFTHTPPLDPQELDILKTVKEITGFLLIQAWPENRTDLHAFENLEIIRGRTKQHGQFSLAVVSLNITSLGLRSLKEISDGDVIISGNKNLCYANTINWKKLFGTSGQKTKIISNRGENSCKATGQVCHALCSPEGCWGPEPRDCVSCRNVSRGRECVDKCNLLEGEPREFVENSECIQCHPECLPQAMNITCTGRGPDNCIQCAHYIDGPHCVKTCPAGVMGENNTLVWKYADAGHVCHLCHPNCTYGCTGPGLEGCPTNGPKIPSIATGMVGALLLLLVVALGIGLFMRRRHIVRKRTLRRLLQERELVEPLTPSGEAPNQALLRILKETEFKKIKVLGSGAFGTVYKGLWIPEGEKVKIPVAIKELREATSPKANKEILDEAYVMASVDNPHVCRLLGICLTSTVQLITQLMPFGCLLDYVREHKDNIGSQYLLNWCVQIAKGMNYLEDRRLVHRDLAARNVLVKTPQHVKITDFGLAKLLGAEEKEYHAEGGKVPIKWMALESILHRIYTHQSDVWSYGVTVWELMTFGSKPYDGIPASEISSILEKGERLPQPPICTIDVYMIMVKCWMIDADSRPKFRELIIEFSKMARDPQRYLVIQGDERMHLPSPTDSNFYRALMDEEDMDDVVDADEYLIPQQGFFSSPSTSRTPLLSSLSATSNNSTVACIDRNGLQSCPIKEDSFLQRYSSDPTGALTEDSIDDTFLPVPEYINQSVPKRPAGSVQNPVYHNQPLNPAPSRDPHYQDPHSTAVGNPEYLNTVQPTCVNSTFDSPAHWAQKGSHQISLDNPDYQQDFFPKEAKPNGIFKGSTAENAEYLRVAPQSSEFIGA
Sequence of Serine/threonine-protein kinase 38-like (Homo sapiens) (Q9Y2H1 2-464 limits assumed): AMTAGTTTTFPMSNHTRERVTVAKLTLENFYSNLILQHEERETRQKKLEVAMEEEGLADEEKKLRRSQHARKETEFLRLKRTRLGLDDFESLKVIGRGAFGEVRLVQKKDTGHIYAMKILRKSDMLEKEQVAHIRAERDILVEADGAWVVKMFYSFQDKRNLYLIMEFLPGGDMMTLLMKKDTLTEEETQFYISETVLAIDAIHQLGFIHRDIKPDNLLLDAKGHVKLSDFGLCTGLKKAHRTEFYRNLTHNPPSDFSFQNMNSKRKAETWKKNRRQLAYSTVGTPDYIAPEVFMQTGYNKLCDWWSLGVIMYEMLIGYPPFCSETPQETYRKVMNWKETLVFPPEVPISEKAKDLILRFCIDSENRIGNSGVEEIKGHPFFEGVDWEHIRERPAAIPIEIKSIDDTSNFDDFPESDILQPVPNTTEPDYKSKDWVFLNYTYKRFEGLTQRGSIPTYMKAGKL
Sequence of Phosphatidylinositol 4-phosphate 5-kinase type-1 gamma (Homo sapiens) (O60331 whole entry): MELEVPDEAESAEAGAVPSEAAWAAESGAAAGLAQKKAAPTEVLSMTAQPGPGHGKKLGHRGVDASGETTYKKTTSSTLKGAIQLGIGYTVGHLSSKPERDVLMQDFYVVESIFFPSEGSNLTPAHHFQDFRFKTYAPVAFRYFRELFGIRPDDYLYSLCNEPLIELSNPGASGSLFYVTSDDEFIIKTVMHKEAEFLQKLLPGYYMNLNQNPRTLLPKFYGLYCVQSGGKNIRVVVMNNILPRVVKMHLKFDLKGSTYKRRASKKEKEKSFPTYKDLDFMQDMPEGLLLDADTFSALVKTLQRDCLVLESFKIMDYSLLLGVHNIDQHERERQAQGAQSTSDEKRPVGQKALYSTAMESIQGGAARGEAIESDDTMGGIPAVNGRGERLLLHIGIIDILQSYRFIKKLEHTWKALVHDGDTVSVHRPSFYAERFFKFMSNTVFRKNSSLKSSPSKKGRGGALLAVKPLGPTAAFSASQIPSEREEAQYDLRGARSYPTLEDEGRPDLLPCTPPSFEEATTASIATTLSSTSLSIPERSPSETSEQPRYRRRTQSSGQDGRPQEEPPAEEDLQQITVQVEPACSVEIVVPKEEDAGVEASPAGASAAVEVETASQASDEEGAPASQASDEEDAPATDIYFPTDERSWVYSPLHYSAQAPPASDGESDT
Sequence of Tyrosine-protein kinase Tec (Homo sapiens) (P42680 whole entry): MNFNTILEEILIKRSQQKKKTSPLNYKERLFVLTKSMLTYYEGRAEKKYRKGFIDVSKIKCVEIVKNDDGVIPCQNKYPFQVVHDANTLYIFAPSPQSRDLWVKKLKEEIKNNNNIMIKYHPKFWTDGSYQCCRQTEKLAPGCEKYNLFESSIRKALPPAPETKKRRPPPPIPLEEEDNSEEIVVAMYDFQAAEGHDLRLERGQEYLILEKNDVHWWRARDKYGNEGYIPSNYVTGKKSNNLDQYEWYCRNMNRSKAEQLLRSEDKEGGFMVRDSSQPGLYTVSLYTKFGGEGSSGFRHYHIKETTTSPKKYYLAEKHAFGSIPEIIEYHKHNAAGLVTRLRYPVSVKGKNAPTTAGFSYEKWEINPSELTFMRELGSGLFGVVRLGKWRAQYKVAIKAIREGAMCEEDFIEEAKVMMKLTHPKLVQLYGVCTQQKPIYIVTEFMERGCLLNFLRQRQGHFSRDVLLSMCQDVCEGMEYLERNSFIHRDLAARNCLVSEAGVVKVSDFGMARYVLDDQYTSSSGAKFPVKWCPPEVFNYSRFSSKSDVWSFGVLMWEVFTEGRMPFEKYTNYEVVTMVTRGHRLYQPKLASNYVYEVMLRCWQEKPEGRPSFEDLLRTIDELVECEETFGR
Sequence of Tyrosine-protein kinase ZAP-70 (Homo sapiens) (P43403 whole entry): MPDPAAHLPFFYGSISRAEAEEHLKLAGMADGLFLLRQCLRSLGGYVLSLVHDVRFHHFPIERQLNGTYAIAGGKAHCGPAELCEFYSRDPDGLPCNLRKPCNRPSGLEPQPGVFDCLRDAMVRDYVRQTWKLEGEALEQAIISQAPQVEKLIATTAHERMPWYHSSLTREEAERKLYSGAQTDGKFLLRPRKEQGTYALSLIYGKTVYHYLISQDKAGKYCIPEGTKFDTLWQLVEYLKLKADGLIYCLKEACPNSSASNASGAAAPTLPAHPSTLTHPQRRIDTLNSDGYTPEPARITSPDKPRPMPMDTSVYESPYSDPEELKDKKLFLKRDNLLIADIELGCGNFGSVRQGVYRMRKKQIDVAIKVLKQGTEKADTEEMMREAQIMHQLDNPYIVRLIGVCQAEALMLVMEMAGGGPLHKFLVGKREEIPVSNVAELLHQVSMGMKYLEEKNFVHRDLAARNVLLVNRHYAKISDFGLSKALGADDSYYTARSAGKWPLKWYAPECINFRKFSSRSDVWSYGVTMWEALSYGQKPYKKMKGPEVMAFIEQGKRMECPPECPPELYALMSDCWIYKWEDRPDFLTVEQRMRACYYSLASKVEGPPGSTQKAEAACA
Sequence of Cyclin-dependent kinase 2 homolog (Plasmodium falciparum (isolate 3D7)) (P61075 whole entry): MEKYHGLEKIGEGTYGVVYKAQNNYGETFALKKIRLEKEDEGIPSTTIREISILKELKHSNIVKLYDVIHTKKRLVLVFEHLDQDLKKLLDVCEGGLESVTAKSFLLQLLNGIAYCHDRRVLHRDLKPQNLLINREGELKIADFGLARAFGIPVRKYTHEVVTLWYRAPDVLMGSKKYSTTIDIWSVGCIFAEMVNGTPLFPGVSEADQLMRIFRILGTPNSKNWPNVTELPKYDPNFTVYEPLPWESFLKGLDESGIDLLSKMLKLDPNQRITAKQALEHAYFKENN
Sequence of Serine/threonine-protein kinase 16 (Homo sapiens) (O75716 whole entry): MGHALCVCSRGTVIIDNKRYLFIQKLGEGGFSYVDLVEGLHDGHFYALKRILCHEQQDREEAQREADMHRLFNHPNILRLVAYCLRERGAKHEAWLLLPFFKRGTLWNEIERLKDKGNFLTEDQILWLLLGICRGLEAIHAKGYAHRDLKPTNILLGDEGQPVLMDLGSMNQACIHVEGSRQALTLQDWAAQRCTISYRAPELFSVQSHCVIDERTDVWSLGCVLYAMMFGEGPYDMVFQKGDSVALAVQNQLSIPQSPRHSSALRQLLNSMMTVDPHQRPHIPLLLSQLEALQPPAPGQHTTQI
Sequence of Dual specificity protein kinase CLK2 (Homo sapiens) (P49760 whole entry, looked up): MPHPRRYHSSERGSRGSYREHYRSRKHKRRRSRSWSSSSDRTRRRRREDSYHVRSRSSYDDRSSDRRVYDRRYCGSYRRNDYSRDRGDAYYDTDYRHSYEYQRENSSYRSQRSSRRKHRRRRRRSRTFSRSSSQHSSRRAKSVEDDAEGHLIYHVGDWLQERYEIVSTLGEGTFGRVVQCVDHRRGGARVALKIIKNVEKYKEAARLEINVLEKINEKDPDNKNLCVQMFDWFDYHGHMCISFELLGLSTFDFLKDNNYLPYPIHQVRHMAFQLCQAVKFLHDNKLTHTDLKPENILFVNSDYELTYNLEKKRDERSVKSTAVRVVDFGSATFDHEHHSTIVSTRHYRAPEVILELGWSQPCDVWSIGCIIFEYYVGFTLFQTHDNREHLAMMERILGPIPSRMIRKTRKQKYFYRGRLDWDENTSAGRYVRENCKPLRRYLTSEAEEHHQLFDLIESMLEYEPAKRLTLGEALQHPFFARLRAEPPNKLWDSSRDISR
Sequence of Cyclin-dependent kinase 3 (Homo sapiens) (Q00526 whole entry, looked up): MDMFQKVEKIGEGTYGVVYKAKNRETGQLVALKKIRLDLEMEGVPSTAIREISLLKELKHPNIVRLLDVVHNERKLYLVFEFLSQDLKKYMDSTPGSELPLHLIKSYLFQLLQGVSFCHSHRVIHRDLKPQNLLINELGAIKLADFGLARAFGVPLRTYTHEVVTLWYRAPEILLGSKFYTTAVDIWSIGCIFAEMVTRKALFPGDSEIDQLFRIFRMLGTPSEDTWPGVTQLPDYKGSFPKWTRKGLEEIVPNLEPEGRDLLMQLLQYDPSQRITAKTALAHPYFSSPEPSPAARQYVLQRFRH

CN(C)CC#Cc1ccc(OCCCc2sc(N3CCc4cccc(C(=O)Nc5nc6ccccc6s5)c4C3)nc2C(=O)O)c(F)c1 [A-1155463]
inactive: residual activity [1] 100% | residual activity [2] 68% | residual activity [3] 100% | residual activity [4] 100% | residual activity [5] 83% | residual activity [6] 100% | residual activity [7] 100% | inhibition [8] 31.5% | residual activity [9] 94% | residual activity [10] 100% | residual activity [11] 86% | residual activity [12] 64% | residual activity [13] 83% | residual activity [14] 100% | residual activity [15] 92% | residual activity [16] 69% | residual activity [17] 85% | residual activity [18] 100% | residual activity [19] 91% | inhibition [20] 34.7% | residual activity [21] 90% | residual activity [22] 100% | residual activity [23] 100% | residual activity [24] 83% | residual activity [25] 86% | residual activity [26] 94% | residual activity [27] 97% | residual activity [28] 100% | residual activity [29] 87% | residual activity [30] 80% | residual activity [31] 100% | residual activity [32] 100% | residual activity [33] 98% | residual activity [34] 97% | residual activity [35] 92% | residual activity [36] 86% | residual activity [37] 83% | residual activity [38] 100% | residual activity [39] 100%
